Experimental data reported in PubChem BioAssay AID1259407 (Chemical Carcinogenesis Research Information System (CCRIS), 2018).
Calls of active or inactive are those of the source. No rule for the calls is given here.

Test system: CCRIS mutagenicity, Ames/micronucleus/aberration tests
Assay: CCRIS mutagenicity studies
[1] = Test System: AMES SALMONELLA TYPHIMURIUM, Strain/Indicator: TA98, Metabolic Activation: NONE, Method: PREINCUBATION
[2] = Test System: AMES SALMONELLA TYPHIMURIUM, Strain/Indicator: TA98, Metabolic Activation: RAT LIVER S-9, PHENOBARBITAL AND BETA-NAPHTHOFLAVONE, Method: PREINCUBATION
[3] = Test System: AMES SALMONELLA TYPHIMURIUM, Strain/Indicator: TA100, Metabolic Activation: NONE, Method: PREINCUBATION
[4] = Test System: AMES SALMONELLA TYPHIMURIUM, Strain/Indicator: TA100, Metabolic Activation: RAT LIVER S-9, PHENOBARBITAL AND BETA-NAPHTHOFLAVONE, Method: PREINCUBATION
[5] = Test System: AMES SALMONELLA TYPHIMURIUM, Strain/Indicator: TA1535, Metabolic Activation: NONE, Method: PREINCUBATION
[6] = Test System: AMES SALMONELLA TYPHIMURIUM, Strain/Indicator: TA1535, Metabolic Activation: RAT LIVER S-9, PHENOBARBITAL AND BETA-NAPHTHOFLAVONE, Method: PREINCUBATION
[7] = Test System: AMES SALMONELLA TYPHIMURIUM, Strain/Indicator: TA1537, Metabolic Activation: NONE, Method: PREINCUBATION
[8] = Test System: AMES SALMONELLA TYPHIMURIUM, Strain/Indicator: TA1537, Metabolic Activation: RAT LIVER S-9, PHENOBARBITAL AND BETA-NAPHTHOFLAVONE, Method: PREINCUBATION
[9] = Test System: E.COLI, Strain/Indicator: WP2UVRA, Metabolic Activation: NONE, Method: PREINCUBATION
[10] = Test System: E.COLI, Strain/Indicator: WP2UVRA, Metabolic Activation: RAT LIVER S-9, PHENOBARBITAL AND BETA-NAPHTHOFLAVONE, Method: PREINCUBATION

Nc1cc(S(=O)(=O)O)c2cccc(S(=O)(=O)O)c2c1
mutagenic call [1]: inactive; negative
mutagenic call [2]: inactive; negative
mutagenic call [3]: inactive; negative
mutagenic call [4]: inactive; negative
mutagenic call [5]: inactive; negative
mutagenic call [6]: inactive; negative
mutagenic call [7]: inactive; negative
mutagenic call [8]: inactive; negative
mutagenic call (Test System: AMES SALMONELLA TYPHIMURIUM, Strain/Indicator: TA1538, Metabolic Activation: NONE, Method: PREINCUBATION): inactive; negative
mutagenic call (Test System: AMES SALMONELLA TYPHIMURIUM, Strain/Indicator: TA1538, Metabolic Activation: RAT LIVER S-9, PHENOBARBITAL AND BETA-NAPHTHOFLAVONE, Method: PREINCUBATION): inactive; negative
mutagenic call [9]: inactive; negative
mutagenic call [10]: inactive; negative

CN(N=O)C(=O)Oc1ccccc1Cl
mutagenic call (Test System: E. COLI WP2, Strain/Indicator: WP2, Metabolic Activation: NONE, Method: STANDARD PLATE): active; positive

O=C(S)c1ccccc1
mutagenic call [1]: inactive; negative
mutagenic call [2]: inactive; negative
mutagenic call [3]: inactive; negative
mutagenic call [4]: inactive; negative
mutagenic call (Test System: AMES SALMONELLA TYPHIMURIUM, Strain/Indicator: TA102, Metabolic Activation: NONE, Method: PREINCUBATION): inactive; negative
mutagenic call (Test System: AMES SALMONELLA TYPHIMURIUM, Strain/Indicator: TA102, Metabolic Activation: RAT LIVER S-9, PHENOBARBITAL AND BETA-NAPHTHOFLAVONE, Method: PREINCUBATION): inactive; negative
mutagenic call (Test System: AMES SALMONELLA TYPHIMURIUM, Strain/Indicator: TA104, Metabolic Activation: NONE, Method: PREINCUBATION): inactive; negative
mutagenic call (Test System: AMES SALMONELLA TYPHIMURIUM, Strain/Indicator: TA104, Metabolic Activation: RAT LIVER S-9, PHENOBARBITAL AND BETA-NAPHTHOFLAVONE, Method: PREINCUBATION): inactive; negative
mutagenic call [5]: inactive; negative
mutagenic call [6]: inactive; negative
mutagenic call [7]: inactive; negative
mutagenic call [8]: inactive; negative
mutagenic call (Test System: E.COLI, Strain/Indicator: WP2UVRA/PKM101, Metabolic Activation: NONE, Method: PREINCUBATION): inactive; negative
mutagenic call (Test System: E.COLI, Strain/Indicator: WP2UVRA/PKM101, Metabolic Activation: RAT LIVER S-9, PHENOBARBITAL AND BETA-NAPHTHOFLAVONE, Method: PREINCUBATION): inactive; negative
mutagenic call [9]: inactive; negative
mutagenic call [10]: inactive; negative
